These results are taken from patent US11191779B2, “Pharmaceutical composition for preventing or treating cancer, comprising tetraarsenic hexoxide crystalline polymorph” (CHEMAS CO., LTD., priority 2016, dated 2021).

Assay [1] has as its system human endometrial cancer cell line Ishikawa. Briefly: MTT cell proliferation assay, endometrial cancer cell line Ishikawa. It is filed as cell-based. As to conditions: treatment for 72 hours, read-out: Cancer cell growth inhibition (IC50). The text has this:
(§1) As human cancer cell lines, human lung cancer cell lines NCL-H226 and SK-MES-1, human esophageal cancer cell lines KYSE-150 and TE-1, human gastric cancer cell line AGS, human colorectal cancer cell lines HT29 and HCT116, human prostate cancer cell line PC-3, human pancreatic cancer cell lines BxPC-3 and PANC-1, human cervical cancer cell lines SiHa and HeLa, human ovarian cancer cell line SK-OV-3, and human endometrial cancer cell lines Ishikawa, HEC-1A, and HEC-1B were obtained from the Shanghai Cell Bank of Chinese Academy of Sciences. […]
(§2) The effects of Example 1 and Comparative Examples 1 to 3 on cell proliferation were assessed using MTT assay. […] All the crystals were completely dissolved by standing at room temperature for 15 minutes, and the absorbance was measured using a micro-plate reader at a wavelength of 570 nm (A570 nm).
(§3) The absorbance value of the control group treated without the sample was calculated as 100, and the absorbance value of the treatment group treated with the sample, compared with that of the control group, was calibrated, and the percentage of inhibition of cell proliferation was calculated according to the following equation. Percentage (%) of inhibition of cell proliferation=((mean absorbance of control group cells−mean absorbance of treatment group cells)/mean absorbance of control group cells)×100
On the technique in general: Tetrazolium dyes change colour on reduction, which living cells bring about.

The subject of assay [2] is human lung cancer cell line NCL-H226. The experiment in a line: MTT cell proliferation assay, lung cancer cell line NCL-H226. It is filed as cell-based.
Source text: as §1, §2, §3

The subject of assay [3] is human endometrial cancer cell line HEC-1B. The experiment in a line: MTT cell proliferation assay, endometrial cancer cell line HEC-1B. In kind it is cell-based. The following applies: treatment for 72 hours, read-out: Cancer cell growth inhibition (IC50).
Source text: as §1, §2, §3

Assay [4] deals with human lung cancer cell line SK-MES-1. Briefly: MTT cell proliferation assay, lung cancer cell line SK-MES-1. It is filed as cell-based.
Source text: as §1, §2, §3

Assay [5] has as its system human esophageal cancer cell line KYSE-150. Briefly: MTT cell proliferation assay, esophageal cancer cell line KYSE-150. In kind it is cell-based.
Source text: as §1, §2, §3

The subject of assay [6] is various cancer cells, such as brain cancer, breast cancer, liver cancer, and skin cancer. Briefly: Proliferation of other cancer cells (data not shown). In kind it is cell-based.
The test system of assay [7] is human prostate cancer cell line PC-3. Briefly: MTT cell proliferation assay, prostate cancer cell line PC-3. It is filed as cell-based. As to conditions: PC-3, treatment for 72 hours, read-out: Cancer cell growth inhibition (IC50).
Source text: as §1, §2, §3

Assay [8] has as its system human colorectal cancer cell line HCT116. Briefly: MTT cell proliferation assay, colorectal cancer cell line HCT116. In kind it is cell-based.
Source text: as §1, §2, §3

For assay [9], the system named is human gastric cancer cell line AGS. The experiment in a line: MTT cell proliferation assay, gastric cancer cell line AGS. In kind it is cell-based.
Source text: As human cancer cell lines, human lung cancer cell lines NCL-H226 and SK-MES-1, human esophageal cancer cell lines KYSE-150 and TE-1, human gastric cancer cell line AGS, human colorectal cancer cell lines HT29 and HCT116, human prostate cancer cell line PC-3, human pancreatic cancer cell lines BxPC-3 and PANC-1, human cervical cancer cell lines SiHa and HeLa, human ovarian cancer cell line SK-OV-3, and human endometrial cancer cell lines Ishikawa, HEC-1A, and HEC-1B were obtained from the Shanghai Cell Bank of Chinese Academy of Sciences. The cells were incubated in media supplemented with 10% FBS, 50 U/ml penicillin, and 50 μg/ml streptomycin and suitable for incubation of respective cells (RPMI-1640 (NCL-H226, TE-1, BxPC-3, Ishikawa), MEM (SK-MES-1, SiHa, HeLa, HEC-1B), Ham's F-12K (AGS), Ham's F-12 (PC-3), McCOY's 5A (HT29, HCT116, SK-OV-3, HEC-1A), RPMI-1640:Ham's F-12=1:1(v:v) (KYSE-150), and DMEM (PANC-1)) in a humidified incubator with 5% CO2 and 95% air. The media were exchanged every three days.
The effects of Example 1 and Comparative Examples 1 to 3 on cell proliferation were assessed using MTT assay. MTT assay is based on the ability of viable cells against MTT to produce insoluble dark blue formazan products. […] All the crystals were completely dissolved by standing at room temperature for 15 minutes, and the absorbance was measured using a micro-plate reader at a wavelength of 570 nm (A570 nm).
as §3

Assay [10] concerns human pancreatic cancer cell line BxPC-3. The experiment in a line: MTT cell proliferation assay, pancreatic cancer cell line BxPC-3. It is filed as cell-based.
Source text: as §1, §2, §3

Assay [11] concerns human cervical cancer cell line SiHa. The experiment in a line: MTT cell proliferation assay, cervical cancer cell line SiHa. It is filed as cell-based. The following applies: treatment for 72 hours, read-out: Cancer cell growth inhibition (IC50).
Source text: as §1, §2, §3

The test system of assay [12] is human pancreatic cancer cell line PANC-1. Briefly: MTT cell proliferation assay, pancreatic cancer cell line PANC-1. In kind it is cell-based.
Source text: as §1, §2, §3

For assay [13], the system named is human colorectal cancer cell line HT29. The experiment in a line: MTT cell proliferation assay, colorectal cancer cell line HT29. It is filed as cell-based.
Source text: as §1, §2, §3

For assay [14], the system named is human cervical cancer cell line HeLa. The experiment in a line: MTT cell proliferation assay, cervical cancer cell line HeLa. It is filed as cell-based. The following applies: treatment for 72 hours, read-out: Cancer cell growth inhibition (IC50).
Source text: as §1, §2, §3

Assay [15] deals with human ovarian cancer cell line SK-OV-3. Briefly: MTT cell proliferation assay, ovarian cancer cell line SK-OV-3. In kind it is cell-based. As to conditions: SK-OV-3, treatment for 72 hours, read-out: Cancer cell growth inhibition (IC50).
Source text: as §1, §2, §3

For assay [16], the system named is human esophageal cancer cell line TE-1. The experiment in a line: MTT cell proliferation assay, esophageal cancer cell line TE-1. It is filed as cell-based.
Source text: as §1, §2, §3

For assay [17], the system named is human endometrial cancer cell line HEC-1A. The experiment in a line: MTT cell proliferation assay, endometrial cancer cell line HEC-1A. It is filed as cell-based. As to conditions: treatment for 72 hours, read-out: Cancer cell growth inhibition (IC50).
Source text: as §1, §2, §3

In assay [18] the test system is uterine cancer, bladder cancer, lung cancer, maxillary sinus cancer, kidney cancer. As to conditions: end-stage cancer patients; cited from earlier work.
Another assay deals with cancer metastasis. As to conditions: animal experiments; cited from earlier work.

The IC50 is the concentration needed to halve the response being measured.

With `O1[As]2O[As]3O[As]1O[As](O2)O3` [Example 1, tetraarsenic hexoxide], the half-inhibitory concentration (IC50) came to 2.75 µM in assay [1]; 5.12 µM in [2] (Lung cancer, NCL-H226, treatment for 72 hours, read-out: Cancer cell growth inhibition (IC50)); 4.61 µM in assay [3]; 2.47 µM in [4] (Lung cancer, SK-MES-1, treatment for 72 hours, read-out: Cancer cell growth inhibition (IC50)); 9.85 µM in [5] (Esophageal cancer, KYSE-150, treatment for 72 hours, read-out: Cancer cell growth inhibition (IC50)); 4.98 µM in assay [7]. Also, the IC50 amounted to 5.07 µM in assay [8] (Colorectal cancer, HCT116, treatment for 72 hours, read-out: Cancer cell growth inhibition (IC50)); 0.9 µM in [9] (Gastric cancer, treatment for 72 hours, read-out: Cancer cell growth inhibition (IC50)); 4.98 µM in assay [10] (Pancreatic cancer, BxPC-3, treatment for 72 hours, read-out: Cancer cell growth inhibition (IC50)); 2.8 µM in assay [11]; 5.62 µM in assay [12] (Pancreatic cancer, PANC-1, treatment for 72 hours, read-out: Cancer cell growth inhibition (IC50)); 1.27 µM in [13] (Colorectal cancer, HT29, treatment for 72 hours, read-out: Cancer cell growth inhibition (IC50)). The IC50 in [14] is 1.63 µM; in [15] it was 5.02 µM; in [16] (Esophageal cancer, TE-1, treatment for 72 hours, read-out: Cancer cell growth inhibition (IC50)), 2.35 µM; in [17] it was 2.47 µM. In addition, the “percentage of inhibition of cell proliferation according to treatment time” value in [2] (NCL-H226, 10 μM, 24, 48, 72 hours (FIG. 3)) is listed as “increased with the treatment time”; in assay [4] (SK-MES-1, 10 μM, 24, 48, 72 hours (FIG. 3)) it was “increased with the treatment time”; in [5] (KYSE-150, 10 μM, 24, 48, 72 hours (FIG. 4A)), “significantly increased in the treatment for 72 hours”; in assay [8] (HCT116, 10 μM, 24, 48, 72 hours (FIG. 6A)), “increased with the treatment time”; in assay [13] (HT29, 10 μM, 24, 48, 72 hours (FIG. 6A)), “increased with the treatment time”; in assay [16] (TE-1, 10 μM, 24, 48, 72 hours (FIG. 4A)) it was “increased with the treatment time”. The “inhibition of proliferation of various cancer cells” value in assay [6] is on record as “confirmed to inhibit the proliferation”. Moreover, the “inhibition of cell proliferation according to treatment time and concentration” value in assay [9] (different concentrations, 24, 48, 72 hours (FIG. 5A)) was “increased with the treatment time at each treatment concentration”. Besides, in [9] (treatment for 48 hours (FIG. 5A)), the “percentage of inhibition of gastric cancer cell proliferation at 48 hours” value is “high in spite of the treatment for only 48 hours”. The “percentage of inhibition of cell proliferation according to concentration” value in [10] (BxPC-3, different concentrations, 72 hours (FIG. 8B)) is “increased dependent on the concentration of Example 1”; in [12] (PANC-1, different concentrations, 72 hours (FIG. 8B)) it was “increased dependent on the concentration of Example 1”.
On to `O1[As]2O[As]3O[As]1O[As](O2)O3` [tetraarsenic hexoxide], for which the anticancer treatment effects result in [18] is “had excellent anticancer treatment effects”. For the same compound, the “cancer metastasis suppressing effects” value in the assay with cancer metastasis is recorded as “showed cancer metastasis suppressing effects”.
